Data: ChEMBL document CHEMBL1201862, “PubChem BioAssay data set” (2004)
Activity calls are given as the source filed them.

Experiments:
[1] = Luminescence Cell-Based Dose Response HTS to Identify Inhibitors of 5'UTR Stem-Loop Driven Prion Protein mRNA Translation in H4 Neuroglioblastoma Cells. [Related pubchem assays: 1827 (Project Summary), 1813 (Primary HTS)]; type: functional
[2] = inhibitors of SNCA 5'UTR-driven reporter translation, confirmation, H4 neuroglioma cells, luminescence (AID 1988); type: functional, cell-based
[3] = target: Glycogen synthase kinase-3 beta (Homo sapiens, UniProt P49841); assay: Inhibition of Human GSK-3 beta Activity Measured in Biochemical System Using Microfluidics - 2063-05_Inhibitor_Dose_DryPowder_Activity_Set2. [Related pubchem assays (depositor defined):AID2709]
[4] = target: T1, Aryl hydrocarbon receptor (Homo sapiens, UniProt P35869); assay: Luminescence-based cell-based high throughput dose response assay for activators of the Aryl Hydrocarbon Receptor (AHR). [Related pubchem assays: 2796 (Primary screen (AHR activators in singlicate)), 2845 (Confirmation screen (AHR activators in triplicate)), 434939 (Counterscreen (PXR activators in triplicate)), 2804 (Summary (AHR activators))]; type: ADME
T1 sequence (P35869 whole entry): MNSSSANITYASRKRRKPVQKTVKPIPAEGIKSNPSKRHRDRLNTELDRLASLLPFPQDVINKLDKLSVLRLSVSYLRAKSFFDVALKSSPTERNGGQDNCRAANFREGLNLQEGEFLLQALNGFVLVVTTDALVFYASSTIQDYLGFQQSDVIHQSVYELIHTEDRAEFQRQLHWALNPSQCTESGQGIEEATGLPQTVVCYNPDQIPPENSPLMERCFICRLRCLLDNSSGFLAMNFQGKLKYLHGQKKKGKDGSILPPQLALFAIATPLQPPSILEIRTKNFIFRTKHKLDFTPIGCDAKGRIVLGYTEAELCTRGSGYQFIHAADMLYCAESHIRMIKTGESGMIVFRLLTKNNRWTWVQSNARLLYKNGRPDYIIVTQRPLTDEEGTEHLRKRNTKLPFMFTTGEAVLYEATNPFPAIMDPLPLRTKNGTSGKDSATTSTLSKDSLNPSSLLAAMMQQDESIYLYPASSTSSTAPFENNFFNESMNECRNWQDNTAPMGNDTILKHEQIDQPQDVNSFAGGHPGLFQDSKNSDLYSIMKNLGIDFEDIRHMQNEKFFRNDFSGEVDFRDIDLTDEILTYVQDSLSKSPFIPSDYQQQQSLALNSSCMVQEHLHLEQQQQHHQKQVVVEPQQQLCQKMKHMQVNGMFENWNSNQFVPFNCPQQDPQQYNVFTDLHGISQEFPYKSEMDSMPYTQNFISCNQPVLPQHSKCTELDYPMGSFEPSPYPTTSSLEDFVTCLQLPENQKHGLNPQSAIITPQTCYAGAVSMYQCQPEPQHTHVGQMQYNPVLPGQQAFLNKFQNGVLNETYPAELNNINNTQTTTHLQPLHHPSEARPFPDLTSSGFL

[5] = target: Cyclin-dependent kinase 5/CDK5 activator 1 (Homo sapiens, UniProt Q00535); assay: CDK5-p25 kinase inhibitors, specificity check, dose response, selectivity assay for GSK-3 alpha inhibitor project, biochemical, microfluidic mobility shift, dry powder (AID 588430)
[6] = inhibitors of firefly luciferase expression or activity, dose response, H4 neuroglioma cells, luminescence (AID 1990); type: functional, cell-based
[7] = target: Glycogen synthase kinase-3 alpha (Homo sapiens, UniProt P49840); assay: Inhibition of Human GSK-3 alpha Activity Measured in Biochemical System Using Microfluidics - 2063-06_Inhibitor_Dose_DryPowder_Activity_Set2. [Related pubchem assays (depositor defined):AID2709]
[8] = target: T2, High affinity choline transporter 1 (Homo sapiens, UniProt Q9GZV3); assay: CHT inhibitors, dose response, cell-based, 5-point CRC, membrane potential dye (AID 504840); type: functional
T2 sequence (Q9GZV3 whole entry): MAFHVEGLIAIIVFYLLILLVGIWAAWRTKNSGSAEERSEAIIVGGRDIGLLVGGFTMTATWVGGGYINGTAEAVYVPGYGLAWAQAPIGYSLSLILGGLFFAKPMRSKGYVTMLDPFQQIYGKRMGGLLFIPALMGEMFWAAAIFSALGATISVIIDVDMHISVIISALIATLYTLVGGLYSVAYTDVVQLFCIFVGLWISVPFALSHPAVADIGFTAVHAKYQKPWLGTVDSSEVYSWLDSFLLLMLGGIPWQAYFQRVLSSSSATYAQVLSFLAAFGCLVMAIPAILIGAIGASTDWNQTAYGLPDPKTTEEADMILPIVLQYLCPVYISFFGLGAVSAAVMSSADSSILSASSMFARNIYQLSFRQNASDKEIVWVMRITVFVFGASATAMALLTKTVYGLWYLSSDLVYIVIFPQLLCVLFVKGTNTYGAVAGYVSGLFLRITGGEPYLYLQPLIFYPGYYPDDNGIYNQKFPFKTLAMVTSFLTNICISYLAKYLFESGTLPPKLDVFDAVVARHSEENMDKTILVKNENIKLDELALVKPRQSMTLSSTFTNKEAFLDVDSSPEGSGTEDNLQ

[9] = target: T2, High affinity choline transporter 1; assay: CHT inhibitors, dose response, cell-based, 10-point CRC, membrane potential dye (AID 588401); type: functional;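 also: membrane potential dye fluorescence of choline-evoked depolarization via CHT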
[10] = target: DNA dC->dU-editing enzyme APOBEC-3A (Homo sapiens, UniProt P31941); assay: SAR analysis of small molecule inhibitors of APOBEC3A DNA Deaminase via a fluorescence-based single-stranded DNA deaminase assay.; type: functional; details: read-out: IC50_Mean
[11] = target: DNA dC->dU-editing enzyme APOBEC-3G (Homo sapiens, UniProt Q9HC16); assay: APOBEC3G deaminase inhibitors, SAR follow-up, biochemical, fluorescence, single-stranded DNA substrate (AID 602136); type: functional; details: read-out: IC50_Mean
[12] = target: T3, Melanin-concentrating hormone receptor 1 (Homo sapiens, UniProt Q99705); assay: Late-stage fluorescence-based counterscreen for antagonists of the G-protein coupled receptor 7 (GPR7): cell-based dose response assay to identify antagonists of the melanin-concentrating hormone receptor 1 (MCHR1) Set 6.; type: functional
[13] = target: T4, Neuropeptides B/W receptor type 1 (Homo sapiens, UniProt P48145); assay: GPR7 antagonist potency, late-stage follow-up, cell-based, fluorescence, dose response, set 6 (AID 588583); type: functional
T4 sequence (P48145 whole entry): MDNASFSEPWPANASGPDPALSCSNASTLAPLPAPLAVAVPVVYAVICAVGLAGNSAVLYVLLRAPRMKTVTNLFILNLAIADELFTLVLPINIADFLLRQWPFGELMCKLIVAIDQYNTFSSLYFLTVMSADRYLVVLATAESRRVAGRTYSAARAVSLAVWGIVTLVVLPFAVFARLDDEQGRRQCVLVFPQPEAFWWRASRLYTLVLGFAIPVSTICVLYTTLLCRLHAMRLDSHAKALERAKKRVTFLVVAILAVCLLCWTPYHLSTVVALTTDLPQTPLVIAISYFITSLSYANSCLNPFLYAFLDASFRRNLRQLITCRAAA

[14] = M. tuberculosis growth inhibition in 7H9, dose response, 7H9 media, purified and synthesized samples, set 3 (AID 504646); type: functional
[15] = A High Throughput Confirmatory Assay used to Identify Novel Compounds that Inhibit Mycobacterium Tuberculosis in the absence of Glycerol using Purified and Synthesized Compounds (3).; type: functional
[16] = target: T4, Neuropeptides B/W receptor type 1; assay: GPR7 antagonist potency, late-stage follow-up, cell-based, fluorescence, dose response, set 5 (AID 588566); type: functional
[17] = target: T3, Melanin-concentrating hormone receptor 1; assay: Late-stage fluorescence-based counterscreen for antagonists of the G-protein coupled receptor 7 (GPR7): cell-based dose response assay to identify antagonists of the melanin-concentrating hormone receptor 1 (MCHR1) Set 5.; type: functional

T3 sequence (Q99705 whole entry): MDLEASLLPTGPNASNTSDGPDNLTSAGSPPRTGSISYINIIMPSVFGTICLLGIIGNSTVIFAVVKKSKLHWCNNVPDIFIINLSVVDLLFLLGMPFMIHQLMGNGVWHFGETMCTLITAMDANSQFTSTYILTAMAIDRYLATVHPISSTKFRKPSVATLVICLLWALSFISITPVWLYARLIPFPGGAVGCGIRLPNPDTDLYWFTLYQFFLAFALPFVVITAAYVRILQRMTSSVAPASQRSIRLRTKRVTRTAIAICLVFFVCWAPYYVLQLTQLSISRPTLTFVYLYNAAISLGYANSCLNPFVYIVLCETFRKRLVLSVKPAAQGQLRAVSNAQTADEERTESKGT
Sequence of Glycogen synthase kinase-3 alpha (P49840 whole entry): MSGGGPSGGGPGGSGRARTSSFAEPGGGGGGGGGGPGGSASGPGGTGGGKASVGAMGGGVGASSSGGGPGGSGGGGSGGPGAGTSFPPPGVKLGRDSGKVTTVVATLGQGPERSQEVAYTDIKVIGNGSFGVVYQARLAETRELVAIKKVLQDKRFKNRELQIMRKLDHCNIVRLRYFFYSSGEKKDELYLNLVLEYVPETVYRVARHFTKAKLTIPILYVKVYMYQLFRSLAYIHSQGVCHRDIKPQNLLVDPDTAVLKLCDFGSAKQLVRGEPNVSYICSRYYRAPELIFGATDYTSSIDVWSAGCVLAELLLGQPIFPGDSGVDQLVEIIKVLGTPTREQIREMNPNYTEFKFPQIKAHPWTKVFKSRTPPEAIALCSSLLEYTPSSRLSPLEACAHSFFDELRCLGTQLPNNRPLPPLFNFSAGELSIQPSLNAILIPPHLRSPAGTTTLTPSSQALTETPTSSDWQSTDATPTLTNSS
Sequence of DNA dC->dU-editing enzyme APOBEC-3G (Q9HC16 whole entry): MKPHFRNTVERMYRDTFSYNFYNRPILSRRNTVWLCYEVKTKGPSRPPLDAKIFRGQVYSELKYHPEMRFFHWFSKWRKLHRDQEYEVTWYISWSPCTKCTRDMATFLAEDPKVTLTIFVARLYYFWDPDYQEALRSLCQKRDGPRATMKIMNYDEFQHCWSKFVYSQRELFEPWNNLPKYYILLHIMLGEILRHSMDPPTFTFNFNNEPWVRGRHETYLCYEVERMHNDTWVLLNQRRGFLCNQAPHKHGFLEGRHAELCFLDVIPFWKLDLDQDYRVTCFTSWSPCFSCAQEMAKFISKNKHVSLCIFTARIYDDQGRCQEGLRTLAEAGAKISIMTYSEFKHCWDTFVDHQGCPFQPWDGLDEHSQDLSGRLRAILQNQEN
Sequence of DNA dC->dU-editing enzyme APOBEC-3A (P31941 whole entry): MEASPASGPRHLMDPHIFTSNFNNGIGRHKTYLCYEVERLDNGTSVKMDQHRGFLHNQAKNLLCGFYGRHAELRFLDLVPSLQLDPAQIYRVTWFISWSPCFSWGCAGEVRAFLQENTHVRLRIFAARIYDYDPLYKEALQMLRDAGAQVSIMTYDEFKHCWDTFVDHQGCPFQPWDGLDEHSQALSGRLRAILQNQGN
Sequence of Cyclin-dependent kinase 5/CDK5 activator 1 (Q00535 whole entry): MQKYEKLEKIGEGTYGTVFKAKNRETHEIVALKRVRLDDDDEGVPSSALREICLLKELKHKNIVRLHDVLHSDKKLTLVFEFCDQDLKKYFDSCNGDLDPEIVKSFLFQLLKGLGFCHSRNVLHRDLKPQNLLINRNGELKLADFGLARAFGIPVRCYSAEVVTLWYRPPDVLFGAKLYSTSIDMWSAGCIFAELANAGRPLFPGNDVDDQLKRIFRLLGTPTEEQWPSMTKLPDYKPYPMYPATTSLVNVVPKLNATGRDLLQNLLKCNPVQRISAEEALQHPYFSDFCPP
Sequence of Cyclin-dependent kinase 5/CDK5 activator 1 (Q15078 whole entry, further chain): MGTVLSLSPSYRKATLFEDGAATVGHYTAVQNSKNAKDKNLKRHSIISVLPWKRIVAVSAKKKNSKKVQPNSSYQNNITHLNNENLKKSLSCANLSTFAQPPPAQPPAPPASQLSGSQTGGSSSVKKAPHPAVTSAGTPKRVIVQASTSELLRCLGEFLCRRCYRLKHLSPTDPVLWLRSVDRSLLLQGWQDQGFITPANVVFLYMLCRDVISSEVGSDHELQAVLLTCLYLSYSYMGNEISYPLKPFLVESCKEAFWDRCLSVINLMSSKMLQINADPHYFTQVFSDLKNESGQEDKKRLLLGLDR
Sequence of Glycogen synthase kinase-3 beta (P49841 whole entry): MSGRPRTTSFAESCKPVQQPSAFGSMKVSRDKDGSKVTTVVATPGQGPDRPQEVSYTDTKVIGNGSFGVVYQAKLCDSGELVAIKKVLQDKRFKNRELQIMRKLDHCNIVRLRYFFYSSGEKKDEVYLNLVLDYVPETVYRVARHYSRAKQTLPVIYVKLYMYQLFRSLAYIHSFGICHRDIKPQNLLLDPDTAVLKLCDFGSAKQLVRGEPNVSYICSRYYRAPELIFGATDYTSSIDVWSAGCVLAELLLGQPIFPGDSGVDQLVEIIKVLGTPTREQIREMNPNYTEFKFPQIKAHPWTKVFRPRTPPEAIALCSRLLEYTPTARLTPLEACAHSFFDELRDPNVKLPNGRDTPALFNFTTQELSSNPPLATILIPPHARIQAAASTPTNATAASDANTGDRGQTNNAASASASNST

Which results are given for `COc1ccccc1Nc1nc(NCCO)nc(N)c1[N+](=O)[O-]`?
EC50 [1]: 118 nM (active); EC50 [2]: 11.3 µM (active); AC50 [3]: 134 nM (active); EC50 [4]: 1.2 µM (active); AC50 [5]: 6.14 µM (active); EC50 [6]: 10.9 µM (active); AC50 [7]: 276 nM (active)

Which IC50 [8] does the source give for `C=CCc1ccc(O)c(-c2cc(CC=C)ccc2O)c1` [MAGNOLOL] here?
Its IC50 is 2.89 µM (active).

What about the IC50 [9] of the same compound?
Its IC50 is 1.7 µM (active).

What does the source list for `COc1ccc2c(Cl)c(-c3nnc4n3CCC4)sc2c1`?
IC50 [10]: > 99 µM (inactive); IC50 [11]: > 99 µM (inactive)

Which results are given for `Cc1ccc(C)c(C(C#N)c2c(Cl)cnn(Cc3cccc4ccccc34)c2=O)c1` (configuration not stated)?
IC50 [12]: 3.14 µM (active); IC50 [13]: 3.14 µM (active)

For `O=C(c1ccc(CNc2c(N3CCCC3)c(=O)c2=O)cc1)N1CCN(C2CCCCC2)CC1`, which IC50 [14] is on record?
The IC50 was > 25 µM (active).

And the IC50 [15]?
Its IC50 is > 25 µM (active).

For `COc1ccc(Oc2c(Cl)cnn(Cc3ccc4c(c3)C(=O)c3ccccc3C4=O)c2=O)cc1`, which IC50 [16] is on record?
The IC50 was > 20 µM (inactive).

What about the IC50 [17] of the same compound?
Its IC50 is > 20 µM (inactive).
